Measured values published in PubChem BioAssay AID248 (DTP/NCI, 2004).
“And” between values parts separate entries of the source, which are not always exact repeats. Equal values may be shown once. Inconclusive results and toxic doses are left out.

System: L1210 leukemia ip in BDF1 mice, survival T/C
Assay: NCI In Vivo Anticancer Drug Screen. Data for tumor model L1210 Leukemia (intraperitoneal) in B6D2F1 (BDF1) mice
Conditions: endpoint: mean survival time, higher = longer survival
How it was run: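 In this screen, tumor-bearing mice given compound are compared to those given vehicle, and their survival values are reported as a treated-to-control quotient.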

[1] = dose: 100.0 mg/kg/injection, schedule: Q01DX001 (ip), vehicle: Klucel (hydroxypropylcellulose) (HPC)
[2] = dose: 100.0 mg/kg/injection, schedule: Q04DX003 (ip), vehicle: Klucel (hydroxypropylcellulose) (HPC)
[3] = dose: 200.0 mg/kg/injection, schedule: Q04DX003 (ip), vehicle: Klucel (hydroxypropylcellulose) (HPC)
[4] = dose: 400.0 mg/kg/injection, schedule: Q01DX001 (ip), vehicle: Klucel (hydroxypropylcellulose) (HPC)
[5] = dose: 400.0 mg/kg/injection, schedule: Q04DX003 (ip), vehicle: Klucel (hydroxypropylcellulose) (HPC)
[6] = dose: 100.0 mg/kg/injection, schedule: Q01DX001 (ip), vehicle: saline
[7] = dose: 200.0 mg/kg/injection, schedule: Q01DX001 (ip), vehicle: saline
[8] = dose: 400.0 mg/kg/injection, schedule: Q01DX001 (ip), vehicle: saline
[9] = dose: 100.0 mg/kg/injection, schedule: Q01DX009 (ip), vehicle: Klucel (hydroxypropylcellulose) (HPC)
[10] = dose: 100.0 mg/kg/injection, schedule: Q01DX009 (ip), vehicle: saline with Tween-80
[11] = dose: 100.0 mg/kg/injection, schedule: Q04DX003 (ip), vehicle: saline with Tween-80
[12] = dose: 200.0 mg/kg/injection, schedule: Q01DX009 (ip), vehicle: saline with Tween-80
[13] = dose: 200.0 mg/kg/injection, schedule: Q04DX003 (ip), vehicle: saline with Tween-80
[14] = dose: 400.0 mg/kg/injection, schedule: Q01DX009 (ip), vehicle: saline with Tween-80
[15] = dose: 400.0 mg/kg/injection, schedule: Q04DX003 (ip), vehicle: saline with Tween-80
[16] = dose: 100.0 mg/kg/injection, schedule: Q04DX002 (ip), vehicle: saline with Tween-80
[17] = dose: 200.0 mg/kg/injection, schedule: Q04DX002 (ip), vehicle: saline with Tween-80
[18] = dose: 400.0 mg/kg/injection, schedule: Q04DX002 (ip), vehicle: saline with Tween-80
[19] = dose: 50.0 mg/kg/injection, schedule: Q01DX009 (ip), vehicle: saline with Tween-80
[20] = dose: 200.0 mg/kg/injection, schedule: Q01DX009 (ip), vehicle: Klucel (hydroxypropylcellulose) (HPC)
[21] = dose: 150.0 mg/kg/injection, schedule: Q04DX003 (ip), vehicle: Klucel (hydroxypropylcellulose) (HPC)
[22] = dose: 100.0 mg/kg/injection, schedule: Q01DX001 (ip), vehicle: carboxymethylcellulose (CMC)
[23] = dose: 200.0 mg/kg/injection, schedule: Q01DX001 (ip), vehicle: carboxymethylcellulose (CMC)
[24] = dose: 400.0 mg/kg/injection, schedule: Q01DX001 (ip), vehicle: carboxymethylcellulose (CMC)

CCCCCCCCCCCCCCCCOc1ccc(Cl)cc1
T/C [1]: 95 % of control | T/C [2]: 97 % of control | T/C [3]: 87 % of control | T/C [4]: 92 % of control | T/C [5]: 93 % of control

C[C@]12CC[C@H]3[C@@H](CCC4=CC(=O)CC[C@@]43C(=O)F)[C@@H]1CC[C@@H]2O
T/C (dose: 100.0 mg/kg/injection, schedule: Q01DX001 (sc), vehicle: steriod suspending solution): 97 % of control | T/C (dose: 200.0 mg/kg/injection, schedule: Q01DX001 (sc), vehicle: steriod suspending solution): 100 % of control | T/C (dose: 400.0 mg/kg/injection, schedule: Q01DX001 (sc), vehicle: steriod suspending solution): 97 % of control

COc1ccc(C2(Br)C(=O)NN=C2C)cc1 (stereo not drawn)
T/C [6]: 95 % of control | T/C [7]: 100 % of control | T/C [8]: 95 % of control

[O-][n+]1ccc(CC(O)(C(F)(F)F)C(F)(F)F)cc1
T/C (dose: 25.0 mg/kg/injection, schedule: Q01DX009 (ip), vehicle: Klucel (hydroxypropylcellulose) (HPC)): 93 % of control | T/C (dose: 50.0 mg/kg/injection, schedule: Q01DX009 (ip), vehicle: Klucel (hydroxypropylcellulose) (HPC)): 92 % of control | T/C [9]: 97 % of control and 104 % of control | T/C [2]: 103 % of control | T/C [3]: 102 % of control | T/C [5]: 96 % of control

C/C=C/CCCCCCCC(=O)OCCCC
T/C [10]: 101 % of control | T/C [11]: 103 % of control | T/C [12]: 107 % of control | T/C [13]: 97 % of control | T/C [14]: 95 % of control | T/C [15]: 98 % of control

CC(O)(c1ccccc1)C(C(=O)O)c1ccccc1 (stereo not drawn)
T/C (dose: 50.0 mg/kg/injection, schedule: Q01DX001 (ip), vehicle: saline): 103 % of control | T/C [6]: 103 % of control | T/C [7]: 103 % of control | T/C [8]: 97 % of control

Cc1ccc(COC(=O)c2cccnc2)cc1
T/C [1]: 103 % of control | T/C (dose: 200.0 mg/kg/injection, schedule: Q01DX001 (ip), vehicle: Klucel (hydroxypropylcellulose) (HPC)): 100 % of control | T/C [4]: 103 % of control

O=C(Nc1cccc2ccccc12)Oc1ccccc1Cc1ccccc1
T/C [2]: 93 % of control | T/C [3]: 93 % of control | T/C [5]: 96 % of control

Cc1cc(C)n2[nH]c(=O)cc2n1
T/C [16]: 98 % of control | T/C [17]: 104 % of control | T/C [18]: 106 % of control

Cc1ccc(NS(=O)(=O)c2ccc(Br)cc2)c(C)c1
T/C (dose: 25.0 mg/kg/injection, schedule: Q01DX009 (ip), vehicle: saline with Tween-80): 98 % of control | T/C [19]: 96 % of control | T/C [10]: 96 % of control | T/C [11]: 98 % of control | T/C [12]: 98 % of control | T/C [13]: 91 % of control | T/C [14]: 101 % of control | T/C [15]: 93 % of control

COC1CCC(/C(C#N)=C/C2CCC(N(C)C)CC2)CC1 (stereo not drawn)
T/C [16]: 95 % of control | T/C [17]: 91 % of control | T/C [18]: 98 % of control

COC(=O)N/N=C/c1ccccc1Cl
T/C [9]: 108 % of control | T/C (dose: 100.0 mg/kg/injection, schedule: Q04DX002 (ip), vehicle: Klucel (hydroxypropylcellulose) (HPC)): 93 % of control | T/C [20]: 121 % of control | T/C (dose: 200.0 mg/kg/injection, schedule: Q04DX002 (ip), vehicle: Klucel (hydroxypropylcellulose) (HPC)): 104 % of control | T/C (dose: 400.0 mg/kg/injection, schedule: Q04DX002 (ip), vehicle: Klucel (hydroxypropylcellulose) (HPC)): 96 % of control

O=c1[nH]nnc2c1nc(Cc1ccc([N+](=O)[O-])cc1)n2Cc1ccccc1
T/C (dose: 100.0 mg/kg/injection, schedule: Q01DX001 (ip), vehicle: saline with Tween-80): 102 % of control | T/C (dose: 200.0 mg/kg/injection, schedule: Q01DX001 (ip), vehicle: saline with Tween-80): 86 % of control | T/C (dose: 400.0 mg/kg/injection, schedule: Q01DX001 (ip), vehicle: saline with Tween-80): 100 % of control

COC(=O)Cc1cc(OC)c(OC)cc1I
T/C [6]: 105 % of control | T/C (dose: 100.0 mg/kg/injection, schedule: Q01DX009 (ip), vehicle: saline): 96 % of control | T/C [7]: 100 % of control | T/C (dose: 200.0 mg/kg/injection, schedule: Q01DX009 (ip), vehicle: saline): 102 % of control | T/C [8]: 102 % of control | T/C (dose: 400.0 mg/kg/injection, schedule: Q01DX009 (ip), vehicle: saline): 102 % of control

CN(C)c1ccc(C=Nc2ccc3c(c2)Cc2ccccc2-3)cc1
T/C [9]: 97 % of control | T/C [2]: 94 % of control | T/C [20]: 95 % of control | T/C [3]: 107 % of control | T/C (dose: 400.0 mg/kg/injection, schedule: Q01DX009 (ip), vehicle: Klucel (hydroxypropylcellulose) (HPC)): 90 % of control | T/C [5]: 97 % of control

C1CC2CCC1CNC2
T/C (dose: 50.0 mg/kg/injection, schedule: Q04DX003 (ip), vehicle: saline): 104 % of control | T/C (dose: 100.0 mg/kg/injection, schedule: Q04DX003 (ip), vehicle: saline): 106 % of control

C(=C1\CCc2cc3ccccc3nc21)/c1ccccc1
T/C [19]: 98 % of control | T/C [10]: 95 % of control | T/C [12]: 88 % of control

CS(=O)(=O)OCCN(CCOS(C)(=O)=O)c1ccc(C=Nc2ccc(-c3csc(Cc4ccccc4)n3)cc2)cc1
T/C (dose: 20.0 mg/kg/injection, schedule: Q04DX003 (ip), vehicle: Klucel (hydroxypropylcellulose) (HPC)): 122 % of control | T/C (dose: 30.0 mg/kg/injection, schedule: Q04DX003 (ip), vehicle: Klucel (hydroxypropylcellulose) (HPC)): 98 % of control | T/C (dose: 66.0 mg/kg/injection, schedule: Q04DX003 (ip), vehicle: Klucel (hydroxypropylcellulose) (HPC)): 152 % of control | T/C [21]: 107 % of control

COc1ccc(CC(=O)Cc2ccc(OC)c(OC)c2)cc1OC
T/C [10]: 93 % of control | T/C [11]: 100 % of control | T/C [12]: 98 % of control | T/C [13]: 108 % of control | T/C [14]: 102 % of control | T/C [15]: 100 % of control

CN(C)c1ccc(C=Nc2ccc(N(C)C)cc2)cc1
T/C [22]: 105 % of control | T/C (dose: 100.0 mg/kg/injection, schedule: Q01DX009 (ip), vehicle: carboxymethylcellulose (CMC)): 96 % of control and 92 % of control | T/C (dose: 100.0 mg/kg/injection, schedule: Q04DX002 (ip), vehicle: carboxymethylcellulose (CMC)): 102 % of control and 104 % of control | T/C (dose: 100.0 mg/kg/injection, schedule: Q04DX003 (ip), vehicle: carboxymethylcellulose (CMC)): 102 % of control | T/C [23]: 93 % of control | T/C (dose: 200.0 mg/kg/injection, schedule: Q01DX009 (ip), vehicle: carboxymethylcellulose (CMC)): 86 % of control and 88 % of control | T/C (dose: 200.0 mg/kg/injection, schedule: Q04DX002 (ip), vehicle: carboxymethylcellulose (CMC)): 98 % of control and 105 % of control | T/C (dose: 200.0 mg/kg/injection, schedule: Q04DX003 (ip), vehicle: carboxymethylcellulose (CMC)): 92 % of control | T/C [24]: 88 % of control | T/C (dose: 400.0 mg/kg/injection, schedule: Q01DX009 (ip), vehicle: carboxymethylcellulose (CMC)): 86 % of control and 92 % of control | T/C (dose: 400.0 mg/kg/injection, schedule: Q04DX002 (ip), vehicle: carboxymethylcellulose (CMC)): 97 % of control and 100 % of control | T/C (dose: 400.0 mg/kg/injection, schedule: Q04DX003 (ip), vehicle: carboxymethylcellulose (CMC)): 92 % of control

COc1nc(N)nc2c1nnn2C1OC(CO)C(O)C1O (stereo not drawn)
T/C (dose: 44.0 mg/kg/injection, schedule: Q01DX001 (ip), vehicle: Klucel (hydroxypropylcellulose) (HPC)): 108 % of control | T/C (dose: 66.0 mg/kg/injection, schedule: Q01DX001 (ip), vehicle: Klucel (hydroxypropylcellulose) (HPC)): 103 % of control | T/C (dose: 150.0 mg/kg/injection, schedule: Q01DX001 (ip), vehicle: Klucel (hydroxypropylcellulose) (HPC)): 122 % of control

O=C1c2ccccc2CCCC12OC2c1ccccc1 (stereo not drawn)
T/C (dose: 75.0 mg/kg/injection, schedule: Q04DX003 (ip), vehicle: Klucel (hydroxypropylcellulose) (HPC)): 92 % of control | T/C [21]: 93 % of control | T/C (dose: 300.0 mg/kg/injection, schedule: Q04DX003 (ip), vehicle: Klucel (hydroxypropylcellulose) (HPC)): 95 % of control

CCC(O)(COC(N)=O)c1ccccc1 (stereo not drawn)
T/C [22]: 97 % of control | T/C [23]: 108 % of control | T/C [24]: 94 % of control
